Assays:
[1] = Photo transformation of biliverdin by UV irradiation of embryos (HPLC peak area); assay type: physicochemical, Xenopus laevis
Procedure: The cytoplasmic yolk platelet fraction that was photo transformed by UV light was identified in extracts of about 250 embryos irradiated with 366 nm UV light. The chromatogram of irradiated embryo extracts was compared to that of the non-irradiated ones to identify the photo transformed fraction. Once the retention time of the UV sensitive fraction was determined, the parent chemical species was isolated from control egg extracts. To confirm its UV sensitivity, an aliquot of the pertinent HPLC fraction in 44% acetonitrile and 3 mM ammonium acetate, pH 4.5, was irradiated in a cuvette in a Varian-Cary Bio 50 spectrophotometer at 366 nm. The pH was chosen to approximate that of intact yolk platelets. The wavelength was selected on the basis of the absorption spectra of the target fraction. The absorbance change was monitored at 375 nm. […]
After UV irradiation, a set of embryos from each group were collected, dejellied with 2% L-cysteine, 0.16M NaOH and washed extensively in 20% Steimberg's buffer. […] The bilins and retinoids in each batch were extracted, separated and analyzed as described. […] The gross morphological appearance of each individual embryo was evaluated by light microscopy. The developmental teratology characteristic of the “UV syndrome,” was scored by standard criteria and categorized into the five groups comprising the “index of axis deficiency”. […]

[2] = target: T1, peroxisome proliferator-activated receptor (PPARγ) system (Homo sapiens, UniProt P37231); test: Use of the peroxisome proliferator-activated receptor system
T1 sequence (P37231 1-505): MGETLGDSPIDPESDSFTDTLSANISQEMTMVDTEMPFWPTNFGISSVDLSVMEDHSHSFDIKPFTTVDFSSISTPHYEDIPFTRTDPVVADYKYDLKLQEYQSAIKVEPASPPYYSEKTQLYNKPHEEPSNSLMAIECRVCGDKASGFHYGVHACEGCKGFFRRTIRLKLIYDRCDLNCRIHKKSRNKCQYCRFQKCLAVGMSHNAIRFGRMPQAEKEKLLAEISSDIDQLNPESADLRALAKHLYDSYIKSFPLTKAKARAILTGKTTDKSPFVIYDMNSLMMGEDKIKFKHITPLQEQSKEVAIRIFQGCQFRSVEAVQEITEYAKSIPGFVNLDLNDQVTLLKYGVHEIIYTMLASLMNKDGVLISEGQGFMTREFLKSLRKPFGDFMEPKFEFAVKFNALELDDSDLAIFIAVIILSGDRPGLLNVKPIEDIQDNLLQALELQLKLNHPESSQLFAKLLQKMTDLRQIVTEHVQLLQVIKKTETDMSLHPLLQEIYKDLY

[3] = target: T2, aryl hydrocarbon receptor (AhR) (Homo sapiens, UniProt P35869); conditions: μM range / concentrations used here (Phelan 1998); cited from earlier work
T2 sequence (P35869 11-848): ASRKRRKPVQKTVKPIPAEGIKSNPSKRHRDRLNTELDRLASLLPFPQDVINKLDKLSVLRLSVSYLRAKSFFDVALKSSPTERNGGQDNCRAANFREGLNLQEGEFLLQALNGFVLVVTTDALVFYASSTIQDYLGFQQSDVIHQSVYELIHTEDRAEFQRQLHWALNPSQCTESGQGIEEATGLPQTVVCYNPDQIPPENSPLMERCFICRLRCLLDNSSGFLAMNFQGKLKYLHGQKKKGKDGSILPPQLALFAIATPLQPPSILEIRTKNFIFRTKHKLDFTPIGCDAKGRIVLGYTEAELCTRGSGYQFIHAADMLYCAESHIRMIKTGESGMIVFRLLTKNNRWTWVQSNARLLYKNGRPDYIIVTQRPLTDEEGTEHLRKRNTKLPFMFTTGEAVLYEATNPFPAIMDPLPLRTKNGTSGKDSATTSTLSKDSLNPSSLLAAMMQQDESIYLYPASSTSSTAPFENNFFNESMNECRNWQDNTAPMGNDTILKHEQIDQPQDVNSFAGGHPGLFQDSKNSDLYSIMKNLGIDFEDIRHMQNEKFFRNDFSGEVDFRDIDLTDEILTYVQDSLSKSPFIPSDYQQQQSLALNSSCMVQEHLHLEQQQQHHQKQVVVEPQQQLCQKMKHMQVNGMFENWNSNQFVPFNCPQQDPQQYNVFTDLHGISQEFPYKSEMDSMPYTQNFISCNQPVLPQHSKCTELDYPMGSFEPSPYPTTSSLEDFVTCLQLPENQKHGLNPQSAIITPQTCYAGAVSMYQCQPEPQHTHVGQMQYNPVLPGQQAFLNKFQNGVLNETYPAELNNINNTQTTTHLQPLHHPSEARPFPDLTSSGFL

SMILES: C=CC1=C(C)/C(=C/C2=NC(=C\c3[nH]c(/C=C4\NC(=O)C(C)=C4C=C)c(C)c3CCC(=O)O)/C(CCC(=O)O)=C2C)NC1=O [Biliverdin, biliverdin IXα]
- share of the 23.3 min peak area photo transformed by UV irradiation ([1]; embryos irradiated with 366 nm UV light, typical experiment): > 67%
- decrease of content after UV irradiation ([1]; pre-cleavage embryos exposed to 358 nm for 10 min): 50%
- use of the PPARγ system [2]: does not use
- activation of the aryl hydrocarbon receptor [3]: binds and is activated

— patent US6902881B2, “Compounds and methods for regulating cell differentiation” (priority 2000, dated 2005)
